Tests used:
Assay in all cases: 1H-15N HSQC NMR titration, one-site fit of chemical shift differences
Type in all cases: binding
[1] = molecular target: T1, tethered hnRNPA1 RRM1–RRM2 (5–184) (Homo sapiens, UniProt P09651)
T1 construct: ATP site in RRM2

[2] = molecular target: T2, isolated TDP-43 RRM2 (191–269) (Homo sapiens, UniProt Q13148)
T2 construct: gene TARDBP
Text: 1H-15N HSQC NMR titration, one-site fit of chemical shift differences on isolated TDP-43 RRM2 (191–269) | isolated RRM2 is also able to bind ATP to induce large shifts

[3] = molecular target: T3, isolated hnRNPA1 RRM2 (94–184) (Homo sapiens, UniProt P09651)
T3 construct: printed as 90-residue
T3 sequence (P09651 94-184): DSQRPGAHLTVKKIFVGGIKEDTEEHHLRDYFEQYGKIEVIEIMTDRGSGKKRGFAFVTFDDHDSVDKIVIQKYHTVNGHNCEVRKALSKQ

T2 sequence (Q13148 191-269): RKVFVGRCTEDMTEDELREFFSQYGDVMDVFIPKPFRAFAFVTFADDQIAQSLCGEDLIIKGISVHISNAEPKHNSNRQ
T1 sequence (P09651 5-184): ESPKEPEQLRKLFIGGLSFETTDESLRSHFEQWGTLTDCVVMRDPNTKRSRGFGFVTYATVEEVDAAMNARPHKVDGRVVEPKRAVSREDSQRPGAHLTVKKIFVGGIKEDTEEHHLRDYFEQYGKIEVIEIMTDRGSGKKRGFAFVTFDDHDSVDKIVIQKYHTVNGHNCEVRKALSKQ

Kd [1]: 4.9 mM
Kd [2]: 16.7 ± 0.9 mM
Kd [3]: 7.7 mM
Compound: Nc1ncnc2c1ncn2[C@@H]1O[C@H](COP(=O)(O)OP(=O)(O)OP(=O)(O)O)[C@@H](O)[C@H]1O [ATP]

Source: article PMC7806782, “Tethering-induced destabilization and ATP-binding for tandem RRM domains of ALS-causing TDP-43 and hnRNPA1” (Scientific Reports, 2021)
